Laboratory results from patent US20220372014A1, “NEUROPROTECTIVE COMPOUNDS AND METHODS OF USE THEREOF” (The Johns Hopkins University, priority 2019, published 2022).

Tests used:
[1] = target: EcoRI (Escherichia coli, UniProt P00642); assay: In vitro nuclease assay of EcoRI (pcDNA3 substrate); assay type: biochemical
Method: Nuclease assay. Purified PAAN/MIF protein (4 μM) was incubated with compounds (10 μM) in the nuclease buffer [10 mM Tris-C1 (pH 7.0) and 10 mM MgCl2] for 20 m on ice. Then samples were added with 1 μM of PAAN/MIF substrate (PS30 or RF) and incubated for 1 h at 37° C. The reaction was terminated with loading buffer containing 10 mM EDTA and separated on 15% TBE-urea polyacrylamide (PAGE) gel or 20% TBE PAGE gel. For other nucleases (EcoRI and EcoRV) assays, pcDNA3 (500 ng/reaction) was used as a substrate and 0.01 unit of Exonulcase III were incubated with small dsDNA (Sequence ID NO 4:5′-[…]-3′ and Sequence ID NO 5:5′-[…]-3′).

[2] = target: T1, PAAN/MIF tautomerase activity (Homo sapiens, UniProt P14174); assay: Tautomerase activity assay (D-dopachrome methyl ester); assay type: biochemical; conditions: 10 μM compounds
T1 construct: GST (N, cleaved yes); made in house; host or cells: Escherichia coli
T1 sequence (P14174 1-115): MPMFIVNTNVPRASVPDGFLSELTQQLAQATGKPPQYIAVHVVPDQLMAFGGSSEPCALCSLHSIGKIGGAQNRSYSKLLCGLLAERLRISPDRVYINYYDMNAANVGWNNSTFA
Method: Tautomerase activity assay. The keto-enol tautomeric conversion of D-dopachrome methyl ester by PAAN/MIF was used as described previously. See Bendraft et al. (1997) Biochemistry 36:15356-62. Briefly, a fresh solution of D-dopachrome methyl ester was prepared by mixing 2 mML-3,4 dihydroxyphenylalanine methyl ester with 4 mM sodium peroxidate for 5 m at room temperature and then placed directly on ice before use. The enzymatic reaction was initiated at 25° C. by adding 20 μl of the dopachrome methyl ester substrate to 200 μl of PAAN/MIF WT (final concentration 5 μM) with or without 10 μM compounds (compounds 41, 56, 76, and 77) in tautomerase assay buffer (50 mM potassium phosphate, 1 mM EDTA, pH 6.0). To enhance substrate stability, excess sodium meta-periodate was removed using […] disposable columns (Waters). The activity was determined by the decrease in absorbance at 475 nm using a spectrophotometer (Molecular Devices).

[3] = target: T2, PARP-1 (Homo sapiens, UniProt P09874); assay: In vitro ribosylation assay (IVRA) of PARP-1; assay type: biochemical; conditions: 1 μM
T2 construct: purchased Trevigen
T2 sequence (P09874 whole entry): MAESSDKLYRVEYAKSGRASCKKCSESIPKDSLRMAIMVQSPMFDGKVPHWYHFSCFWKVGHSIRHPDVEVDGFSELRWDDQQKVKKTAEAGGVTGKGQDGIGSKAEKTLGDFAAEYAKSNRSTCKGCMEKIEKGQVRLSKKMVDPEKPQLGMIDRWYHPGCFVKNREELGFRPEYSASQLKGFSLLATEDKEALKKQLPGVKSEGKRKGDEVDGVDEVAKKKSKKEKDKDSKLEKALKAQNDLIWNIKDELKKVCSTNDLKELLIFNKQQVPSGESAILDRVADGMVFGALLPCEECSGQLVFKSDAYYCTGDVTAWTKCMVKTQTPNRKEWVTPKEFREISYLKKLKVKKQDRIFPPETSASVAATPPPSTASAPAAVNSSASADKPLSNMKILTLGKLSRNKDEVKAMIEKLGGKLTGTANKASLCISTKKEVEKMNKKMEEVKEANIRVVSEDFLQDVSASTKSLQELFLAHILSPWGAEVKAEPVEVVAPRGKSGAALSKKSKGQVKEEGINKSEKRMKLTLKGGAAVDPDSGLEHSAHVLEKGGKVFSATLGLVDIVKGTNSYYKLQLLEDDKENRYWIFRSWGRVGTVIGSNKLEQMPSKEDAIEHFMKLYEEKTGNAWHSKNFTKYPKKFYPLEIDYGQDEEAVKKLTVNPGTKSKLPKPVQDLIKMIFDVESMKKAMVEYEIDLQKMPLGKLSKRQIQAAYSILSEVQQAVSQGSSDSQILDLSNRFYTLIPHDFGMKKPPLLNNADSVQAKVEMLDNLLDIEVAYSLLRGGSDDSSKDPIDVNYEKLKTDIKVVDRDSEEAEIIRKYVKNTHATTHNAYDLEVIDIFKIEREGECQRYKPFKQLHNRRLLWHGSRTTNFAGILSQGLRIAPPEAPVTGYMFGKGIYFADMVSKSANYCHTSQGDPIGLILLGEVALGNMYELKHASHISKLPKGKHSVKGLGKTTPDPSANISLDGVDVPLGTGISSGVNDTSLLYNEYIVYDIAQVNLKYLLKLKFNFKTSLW
Method: In vitro ribosylation assay of PARP-1. […] of recombinant PARP-1, activated DNA and NAD+(Trevigen) in the presence or absence of 1 μM of PARP-1 inhibitor, ABT-888 or PAAN/MIF inhibitors (compound 56 or 121) were incubated in the PARP assay buffer (Trevigen) for 30 m at room temperature and analyzed by immunoblot analysis using PAR antibody.

[4] = tested on: mouse cortical neurons; assay: Pulsed-field gel electrophoresis of α-syn PFF-induced DNA damage in mouse cortical neurons; assay type: cell-based
Method: (§1) Preparation and quantification of genomic DNA. The striatum was rapidly removed from the brain and lysed by repetitive pipetting with a micropipette in lysis buffer [100 mM NaCl, 10 mM Tris-HCl (pH 8.0), 25 mM EDTA (pH 8.0), 0.5% SDS] with 0.2 mg/ml proteinase K (Roche Diagnotics). Samples were incubated 55° C. for overnight and further incubated 85° C. for 45 m to inactivate proteinase K. The genomic DNA were immediately separated on a 1.2% pulse field certified agarose in 0.5×TBE buffer with initial switch time of 1.5 s and a final switch time of 3.5 s for 12 h at 6 V/cm. The gel was then stained with […] Ethidium Bromide (EtBr) and visualized on UV light. Noncleaved genomic DNA was quantified as percentage (%) of the total genomic DNA that included both noncleaved genomic DNA and cleaved genomic DNA in each individual group.
Cell culture, transfection, primary neuronal culture and treatment. SH-SY5Y cells (ATCC) were cultured in DMEM containing 10% fetal bovine serum and penicillin/streptomycin at 37° C. under 5% C02. The cells were transfected using PolyFect reagent (Qiagen). Parthanatos was induced by the treatment of 50 μM MNNG for 15 min in SH-SY5Y cells. ABT-888 or PAAN/MIF inhibitors were pretreated with indicated concentration 1 h before MNNG treatment and cell death were assessed after 24 h. […]

[5] = tested on: human cortical neurons; assay: Pulsed-field gel electrophoresis of α-syn PFF-induced DNA damage in human cortical neurons; assay type: cell-based
Method: as §1
Preparation of human cortical neurons. Human H1 embryonic stem cells (ESCs) were differentiated into cortical neurons as previously described. See Xu et al. (2016) Sci. Transl. Med. 8:333ra48. Briefly, ESC colonies detached from mouse embryonic fibroblasts (MEFs) were grown in suspension in human ESC medium without FGF2 for 6 days in low-attachment six-well plates (Corning). On day 7, free-floating embyroid bodies (EB)s were transferred to Matrigel coated plates to allow the complete attachment of EB and formation of rosette neuronal aggregates (RONAs). […]

Sequence of EcoRI (P00642 whole entry): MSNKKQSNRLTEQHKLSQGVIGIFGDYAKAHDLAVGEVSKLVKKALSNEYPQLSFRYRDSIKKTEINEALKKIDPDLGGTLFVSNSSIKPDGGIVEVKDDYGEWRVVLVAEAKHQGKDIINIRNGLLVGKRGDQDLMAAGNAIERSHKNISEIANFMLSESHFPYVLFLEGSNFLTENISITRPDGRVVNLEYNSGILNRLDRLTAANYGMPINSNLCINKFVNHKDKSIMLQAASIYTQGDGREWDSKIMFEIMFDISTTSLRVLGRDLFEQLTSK

Structure (SMILES)	nuclease activity of EcoRI [1]	MIF's tautomerase activity [2]	ABT-888 sensitive PARP activity [3]	genomic DNA cleavage in mouse cortical neurons treated with α-syn PFF [4]	genomic DNA cleavage in human cortical neurons treated with human α-syn PFF [5]
COc1ccc(CC[C@H]2OC(=O)[C@@H]3CCCCN3C(=O)C(=O)C(C)(C)COC(=O)C=CCCN(C)C(=O)[C@@H]3CCCN3C(=O)[C@H](COC(C)(C)C)N(C)C(=O)C(c3ccccc3)NC(=O)CN(C)C(=O)COc3cccc2c3)cc1OC (some centres unmarked) [compound 41]	do not inhibit	Neither did they inhibit	–	–	–
COc1ccc(CC[C@H]2OC(=O)[C@@H]3CCCCN3C(=O)C(=O)C(C)(C)COC(=O)C=CCCN(C)C(=O)[C@@H]3CCCN3C(=O)[C@H](COC(C)(C)C)N(C)C(=O)C(c3ccccc3)NC(=O)[C@H](C)N(C)C(=O)COc3cc(F)cc2c3)cc1OC (mixture of isomers) [compound 121]	–	–	failed to inhibit	protected against genomic DNA cleavage	–
COc1ccc(CC[C@H]2OC(=O)[C@@H]3CCCCN3C(=O)C(=O)C(C)(C)COC(=O)C=CCCN(C)C(=O)[C@@H]3CCCN3C(=O)[C@H](COC(C)(C)C)N(C)C(=O)C(c3ccccc3)NC(=O)[C@H](C)N(C)C(=O)COc3cccc2c3)cc1OC (some centres unmarked) [compound 56]	do not inhibit	Neither did they inhibit	failed to inhibit	protected against genomic DNA cleavage	prevented genomic DNA cleavage
COc1ccc(CC[C@H]2OC(=O)[C@@H]3CCCCN3C(=O)C(=O)C(C)(C)COC(=O)C=CCCN(C)C(=O)CNC(=O)[C@H](C(C)C)N(C)C(=O)[C@@H](Cc3ccccc3)NC(=O)[C@H](CC(C)C)N(C)C(=O)CCC(=O)Nc3cccc2c3)cc1OC [compound 76]	do not inhibit	Neither did they inhibit	–	–	–
COc1ccc(CC[C@H]2OC(=O)[C@@H]3CCCCN3C(=O)C(=O)C(C)(C)COC(=O)C=CCCN(C)C(=O)[C@H](C)NC(=O)[C@H](C(C)C)N(C)C(=O)[C@@H](Cc3ccccc3)NC(=O)[C@H](CC(C)C)N(C)C(=O)CCC(=O)Nc3cccc2c3)cc1OC [compound 77]	do not inhibit	Neither did they inhibit	–	–	prevented genomic DNA cleavage
